Target: T1, recombinant human progestin receptor (Homo sapiens, UniProt P06401)
T1 sequence (P06401 1-933): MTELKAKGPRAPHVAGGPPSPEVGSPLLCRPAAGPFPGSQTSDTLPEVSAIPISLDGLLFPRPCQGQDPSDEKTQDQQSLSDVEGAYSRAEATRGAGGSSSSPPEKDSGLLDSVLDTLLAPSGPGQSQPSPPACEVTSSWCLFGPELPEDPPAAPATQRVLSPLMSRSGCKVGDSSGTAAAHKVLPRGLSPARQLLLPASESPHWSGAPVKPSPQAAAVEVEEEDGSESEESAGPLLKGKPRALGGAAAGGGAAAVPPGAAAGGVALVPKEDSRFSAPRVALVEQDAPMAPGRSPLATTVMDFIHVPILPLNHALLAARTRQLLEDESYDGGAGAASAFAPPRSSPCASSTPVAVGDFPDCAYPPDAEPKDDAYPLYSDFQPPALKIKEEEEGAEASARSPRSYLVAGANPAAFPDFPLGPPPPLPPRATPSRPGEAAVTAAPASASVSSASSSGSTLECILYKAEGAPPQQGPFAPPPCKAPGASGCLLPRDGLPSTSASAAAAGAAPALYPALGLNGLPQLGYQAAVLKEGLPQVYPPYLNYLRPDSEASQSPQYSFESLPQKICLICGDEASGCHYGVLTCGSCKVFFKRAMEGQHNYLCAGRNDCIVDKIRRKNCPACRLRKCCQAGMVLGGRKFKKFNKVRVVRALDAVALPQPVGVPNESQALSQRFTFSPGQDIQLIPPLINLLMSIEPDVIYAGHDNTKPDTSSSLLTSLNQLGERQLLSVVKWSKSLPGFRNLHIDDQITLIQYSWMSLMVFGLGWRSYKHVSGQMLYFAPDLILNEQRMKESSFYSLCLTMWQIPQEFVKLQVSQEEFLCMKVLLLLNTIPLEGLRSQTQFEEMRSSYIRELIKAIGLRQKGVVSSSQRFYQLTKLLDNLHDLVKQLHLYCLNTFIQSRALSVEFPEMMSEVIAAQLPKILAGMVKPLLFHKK
Assay: Relative binding affinity to recombinant human progestin receptor
Excerpt: Methods of determining affinity to the aforementioned receptors are known to the person skilled in the art. In this context, reference can be made, for example, to EP-A 808 845; Lacroix et al., Bioorganic & Medicinal Chemistry 1999 (7) 2329-2341; and D. Philibert et al., Gynecol Endocrinol 1999, 13, 316-26.
The relative binding affinities of (2S,17S)-17-(2-hydroxypropanoyl)-3-hydroxy-17-methyl-estra-1,3,5(10),9(11)-tetraene [compound of the general formula (IV)] to the recombinant human progestin receptor, mineral corticoid receptor, androgen receptor, glucocorticoid receptor and oestrogen receptor were determined experimentally (cf. D. Philibert et al., Gynecol Endocrinol 1999, 13, 316-26).

## C[C@H](O)C(=O)[C@@]1(C)CC[C@H]2[C@@H]3CCc4cc(O)ccc4C3=CC[C@@]21C [(2S,17S)-17-(2-hydroxypropanoyl)-3-hydroxy-17-methylestra-1,3,5(10),9(11)-tetraene]
Recombinant human receptor, progesterone reference standard
  affinity to the progestin receptor (relative binding affinity): clear affinity
Versus other steroid receptors (mineral corticoid, androgen, glucocorticoid, oestrogen), quotient of relative binding affinities
  selectivity for the progestin receptor: high selectivity

Reference: patent US20090264387A1, “ESTRA-1,3,5(10)-TRIENE DERIVATIVES FOR CONTRACEPTION” (GRUNENTHAL GMBH, priority 2008, published 2009)
